Assay results as given in PubChem BioAssay (NCI).
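Exposure lasted 48 hours, with cells grown in 96-well plates and compounds tested at five concentrations. The concentration for 50% growth inhibition is given as GI50. Definition used: TGI = concentration required for complete inhibition of growth.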

Columns and labels:
Experiment in all cases: inhibition of tumour cell growth, NCI panel, 48 h
786-0 renal = test system: 786-0 renal
A498 renal = test system: A498 renal
A549 NSCLC = test system: A549 NSCLC
ACHN renal = test system: ACHN renal
BT-549 breast = test system: BT-549 breast
CAKI-1 renal = test system: CAKI-1 renal
CCRF-CEM leukemia = test system: CCRF-CEM leukemia
COLO 205 colon = test system: COLO 205 colon
DU-145 prostate = test system: DU-145 prostate
EKVX NSCLC = test system: EKVX NSCLC
HCC-2998 colon = test system: HCC-2998 colon
HCT-116 colon = test system: HCT-116 colon
HCT-15 colon = test system: HCT-15 colon
HL-60(TB) leukemia = test system: HL-60(TB) leukemia
HOP-62 NSCLC = test system: HOP-62 NSCLC
HOP-92 NSCLC = test system: HOP-92 NSCLC
HS 578T breast = test system: HS 578T breast
HT29 colon = test system: HT29 colon
IGROV1 ovarian = test system: IGROV1 ovarian
K-562 leukemia = test system: K-562 leukemia
KM12 colon = test system: KM12 colon
LOX IMVI melanoma = test system: LOX IMVI melanoma
M14 melanoma = test system: M14 melanoma
MALME-3M melanoma = test system: MALME-3M melanoma
MCF7 breast = test system: MCF7 breast
MDA-MB-231 breast = test system: MDA-MB-231 breast
MDA-MB-435 = test system: MDA-MB-435
MOLT-4 leukemia = test system: MOLT-4 leukemia
NCI-H226 lung = test system: NCI-H226 lung
NCI-H23 lung = test system: NCI-H23 lung
NCI-H460 lung = test system: NCI-H460 lung
NCI-H522 lung = test system: NCI-H522 lung
NCI/ADR-RES ovarian = test system: NCI/ADR-RES ovarian
OVCAR-3 ovarian = test system: OVCAR-3 ovarian
OVCAR-4 ovarian = test system: OVCAR-4 ovarian
OVCAR-5 ovarian = test system: OVCAR-5 ovarian
OVCAR-8 ovarian = test system: OVCAR-8 ovarian
PC-3 prostate = test system: PC-3 prostate
RPMI-8226 leukemia = test system: RPMI-8226 leukemia
RXF 393 renal = test system: RXF 393 renal
SF-268 CNS = test system: SF-268 CNS
SF-295 CNS = test system: SF-295 CNS
SF-539 CNS = test system: SF-539 CNS
SK-MEL-2 melanoma = test system: SK-MEL-2 melanoma
SK-MEL-28 melanoma = test system: SK-MEL-28 melanoma
SK-MEL-5 melanoma = test system: SK-MEL-5 melanoma
SK-OV-3 ovarian = test system: SK-OV-3 ovarian
SN12C renal = test system: SN12C renal
SNB-19 CNS = test system: SNB-19 CNS
SNB-75 CNS = test system: SNB-75 CNS
SR leukemia = test system: SR leukemia
SW-620 colon = test system: SW-620 colon
T-47D breast = test system: T-47D breast
TK-10 renal = test system: TK-10 renal
U251 CNS = test system: U251 CNS
UACC-257 melanoma = test system: UACC-257 melanoma
UACC-62 melanoma = test system: UACC-62 melanoma
UO-31 renal = test system: UO-31 renal

Brc1cccc(-c2cc(-c3ccc4c(c3)OCCO4)[nH]n2)c1
GI50 (786-0 renal): 2.51 µM | TGI (786-0 renal): 28.4 µM | GI50 (A498 renal): 0.563 µM | TGI (A498 renal): 3.89 µM | GI50 (A549 NSCLC): 1.57 µM | TGI (A549 NSCLC): 37.6 µM | GI50 (ACHN renal): 1.54 µM | TGI (ACHN renal): 33.2 µM | GI50 (BT-549 breast): 1.62 µM | TGI (BT-549 breast): 47.8 µM | GI50 (CAKI-1 renal): 0.953 µM | TGI (CAKI-1 renal): 29.8 µM | GI50 (CCRF-CEM leukemia): 1.59 µM | TGI (CCRF-CEM leukemia): 250 µM | GI50 (COLO 205 colon): 1.03 µM | TGI (COLO 205 colon): 26 µM | GI50 (DU-145 prostate): 1.98 µM | TGI (DU-145 prostate): 27 µM | GI50 (EKVX NSCLC): 7.21 µM | TGI (EKVX NSCLC): 49.6 µM | GI50 (HCC-2998 colon): 3.92 µM | TGI (HCC-2998 colon): 33.4 µM | GI50 (HCT-116 colon): 1.13 µM | TGI (HCT-116 colon): 29.4 µM | GI50 (HCT-15 colon): 0.731 µM | TGI (HCT-15 colon): 30.6 µM | GI50 (HL-60(TB) leukemia): 0.891 µM | TGI (HL-60(TB) leukemia): 17.5 µM | GI50 (HOP-62 NSCLC): 1.38 µM | TGI (HOP-62 NSCLC): 41.3 µM | GI50 (HOP-92 NSCLC): 4.31 µM | TGI (HOP-92 NSCLC): 32.9 µM | GI50 (HS 578T breast): 1.25 µM | TGI (HS 578T breast): 30.6 µM | GI50 (HT29 colon): 0.804 µM | TGI (HT29 colon): 27.4 µM | GI50 (IGROV1 ovarian): 1.31 µM | TGI (IGROV1 ovarian): 30.2 µM | GI50 (K-562 leukemia): 0.584 µM | TGI (K-562 leukemia): 250 µM | GI50 (KM12 colon): 0.669 µM | TGI (KM12 colon): 25.5 µM | GI50 (LOX IMVI melanoma): 1.53 µM | TGI (LOX IMVI melanoma): 30.4 µM | GI50 (M14 melanoma): 0.729 µM | TGI (M14 melanoma): 31.1 µM | GI50 (MALME-3M melanoma): 1.3 µM | TGI (MALME-3M melanoma): 53.4 µM | GI50 (MCF7 breast): 1.06 µM | TGI (MCF7 breast): 41.2 µM | GI50 (MDA-MB-231 breast): 3.65 µM | TGI (MDA-MB-231 breast): 32.7 µM | GI50 (MDA-MB-435): 0.186 µM | TGI (MDA-MB-435): 0.97 µM | GI50 (MOLT-4 leukemia): 1.09 µM | TGI (MOLT-4 leukemia): 101 µM | GI50 (NCI-H226 lung): 12.1 µM | TGI (NCI-H226 lung): 60.9 µM | GI50 (NCI-H23 lung): 3.46 µM | TGI (NCI-H23 lung): 53.6 µM | GI50 (NCI-H460 lung): 0.877 µM | TGI (NCI-H460 lung): 6.07 µM | GI50 (NCI-H522 lung): 0.755 µM | TGI (NCI-H522 lung): 34.8 µM | GI50 (NCI/ADR-RES ovarian): 0.766 µM | TGI (NCI/ADR-RES ovarian): 29.8 µM | GI50 (OVCAR-3 ovarian): 0.718 µM | TGI (OVCAR-3 ovarian): 2.27 µM | GI50 (OVCAR-4 ovarian): 7.79 µM | TGI (OVCAR-4 ovarian): 48.5 µM | GI50 (OVCAR-5 ovarian): 3.69 µM | TGI (OVCAR-5 ovarian): 35.4 µM | GI50 (OVCAR-8 ovarian): 1.68 µM | TGI (OVCAR-8 ovarian): 40.1 µM | GI50 (PC-3 prostate): 1.44 µM | TGI (PC-3 prostate): 41.4 µM | GI50 (RPMI-8226 leukemia): 1.43 µM | TGI (RPMI-8226 leukemia): 236 µM | GI50 (RXF 393 renal): 1.77 µM | TGI (RXF 393 renal): 25.7 µM | GI50 (SF-268 CNS): 3.11 µM | TGI (SF-268 CNS): 37.1 µM | GI50 (SF-295 CNS): 2.93 µM | TGI (SF-295 CNS): 32.7 µM | GI50 (SF-539 CNS): 1.8 µM | TGI (SF-539 CNS): 8.48 µM | GI50 (SK-MEL-2 melanoma): 1.74 µM | TGI (SK-MEL-2 melanoma): 69.2 µM | GI50 (SK-MEL-28 melanoma): 11.2 µM | TGI (SK-MEL-28 melanoma): 55.5 µM | GI50 (SK-MEL-5 melanoma): 1.17 µM | TGI (SK-MEL-5 melanoma): 30.3 µM | GI50 (SK-OV-3 ovarian): 1.69 µM | TGI (SK-OV-3 ovarian): 43.6 µM | GI50 (SN12C renal): 1.47 µM | TGI (SN12C renal): 36.8 µM | GI50 (SNB-19 CNS): 3.05 µM | TGI (SNB-19 CNS): 50.5 µM | GI50 (SNB-75 CNS): 0.531 µM | TGI (SNB-75 CNS): 6.58 µM | GI50 (SR leukemia): 0.581 µM | TGI (SR leukemia): 136 µM | GI50 (SW-620 colon): 0.785 µM | TGI (SW-620 colon): 35.3 µM | GI50 (T-47D breast): 1.34 µM | TGI (T-47D breast): 50.1 µM | GI50 (TK-10 renal): 3.3 µM | TGI (TK-10 renal): 40.7 µM | GI50 (U251 CNS): 1.2 µM | TGI (U251 CNS): 33.4 µM | GI50 (UACC-257 melanoma): 11.6 µM | TGI (UACC-257 melanoma): 52.9 µM | GI50 (UACC-62 melanoma): 0.871 µM | TGI (UACC-62 melanoma): 40.9 µM | GI50 (UO-31 renal): 4.24 µM | TGI (UO-31 renal): 36.6 µM
